The compounds below were run against human metabotropic Glutamate 4 receptor (Homo sapiens (Human), UniProt Q14833) (assay: Assay A: in vitro testing of mGluR4 potency (cAMP HTRF, glutamate/forskolin stimulated)). Details: HEK293 cells overexpressing human mGluR4; 10 uM L-glutamic acid, 1 uM forskolin; compounds of the present invention.
human metabotropic Glutamate 4 receptor, sequence (Q14833 33-912): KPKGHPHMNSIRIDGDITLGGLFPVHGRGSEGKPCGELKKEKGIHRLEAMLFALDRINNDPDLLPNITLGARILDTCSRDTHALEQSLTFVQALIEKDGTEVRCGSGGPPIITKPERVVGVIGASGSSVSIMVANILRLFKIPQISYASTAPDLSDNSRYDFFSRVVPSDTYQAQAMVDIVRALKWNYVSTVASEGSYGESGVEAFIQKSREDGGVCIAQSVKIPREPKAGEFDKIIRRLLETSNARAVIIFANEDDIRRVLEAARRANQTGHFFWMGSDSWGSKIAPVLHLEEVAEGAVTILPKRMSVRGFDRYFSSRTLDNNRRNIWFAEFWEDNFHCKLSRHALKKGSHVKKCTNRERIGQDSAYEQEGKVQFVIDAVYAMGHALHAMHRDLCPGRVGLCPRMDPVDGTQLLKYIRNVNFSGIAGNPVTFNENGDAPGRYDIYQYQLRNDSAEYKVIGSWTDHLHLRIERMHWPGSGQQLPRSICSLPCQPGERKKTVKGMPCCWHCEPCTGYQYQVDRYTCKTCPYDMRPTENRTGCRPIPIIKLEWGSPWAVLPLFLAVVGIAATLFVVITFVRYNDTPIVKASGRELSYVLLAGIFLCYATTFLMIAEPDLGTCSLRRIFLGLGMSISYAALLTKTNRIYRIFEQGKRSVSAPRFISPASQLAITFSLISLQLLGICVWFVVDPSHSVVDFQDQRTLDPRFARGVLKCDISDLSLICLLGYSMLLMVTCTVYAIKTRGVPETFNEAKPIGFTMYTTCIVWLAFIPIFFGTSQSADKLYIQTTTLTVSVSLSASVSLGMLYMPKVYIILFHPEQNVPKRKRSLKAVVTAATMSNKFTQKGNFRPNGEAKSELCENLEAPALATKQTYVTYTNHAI
Assay type: cell-based
Description: A. In Vitro Testing of mGluR4 Potency The in vitro activity of the compounds according to the invention may be investigated as follows:
The HEK293 cell overexpressing the human metabotropic Glutamate 4 receptor are thawed at 37° C. and immediately diluted with cell culture medium. After centrifugation, the cell pellet is re-suspended in medium and then distributed from a stirred spinner flask into the wells of the assay plate. The plates are incubated for one hour at room temperature before they are incubated for 24 hours at 37° C./5% CO2. After washing the cells in the plate three times with 80 uL HBSS/HEPES buffer (10 uL buffer remained in the wells after washing), 5 uL per well of compounds diluted in HBSS/HEPES buffer containing 0.2% BSA (final concentration: 0.1%) and 1 mM IBMX (final concentration: 0.5 mM) are added to the wells of the assay plate. Thereafter 5 uL per well of L-Glutamic acid (final concentration: 10 uM), forskolin (final concentration: 1 uM) and 1 mM IBMX (final concentration: 0.5 mM) dissolved in HBSS/HEPES buffer containing 0.2% BSA (final concentration: 0.1%) are added to the assay plate (final DMSO concentration: 1%). Several wells of the assay plate are used either for the positive and the negative controls or for the cAMP standard curve. The assay plate is incubated for 30 minutes at room temperature. Then 5 ul per well of Anti-cAMP-Antibody-d2 solution and 5 ul per well of cAMP-Europium Cryptate dilution are added to all wells of the plate and the plate is incubated another 60 minutes light protected at room temperature. The emission at 615 nm and 665 nm (Excitation wavelength: 320 nm) are measured on the EnVision™ reader (Perkin Elmer). The ratio between the emission at 665 nm and 615 is calculated by the reader. The whole assay is performed in the dark or under green light.
The cAMP standard is prepared by diluting the cAMP stock solution with HBSS/Hepes buffer: 5 μl/well of the cAMP dilutions (in HBSS/Hepes buffer containing 1 mM IBMX and 0.2% BSA—final concentration: 0.5 mM IBMX and 0.1% BSA) are added to 10 ul/well HBSS/Hepes buffer plus 5 ul/well 4% DMSO in HBSS/Hepes containing 0.2% BSA (final DMSO concentration: 1% —like in the wells containing compounds) in the wells of the assay plate. The final cAMP concentrations in the assay plate are: 0, 0.17, 0.69, 2.78, 11.1, 44.5, 178, and 712 nM (two wells/cAMP concentration).
Each assay microtiter plate contained also wells with vehicle controls instead of compound as controls for L-Glutamic acid induced signal (negative control; 100% CTL; 10 uM L-Glutamic acid+1 uM forskolin+0.5 mM IBMX+1% DMSO) and wells with vehicle controls without L-Glutamic acid as controls for non-specific changes in signal (positive control; 0% CTL; 0 uM L-Glutamic acid+1 uM forskolin+0.5 mM IBMX+1% DMSO).
The analysis of the data is performed by the calculation the ratio between the emission at 665 nm and the emission at 615 nm (Em665/Em615 ratio). Thereafter the signals of the compounds are normalized using the positive and negative controls by the following formula:
PoC=100×((Signal Sample−Positive Control)/(Negative Control−Positive Control))
`Cc1cnc(C(=O)NC(c2nc3ccc(C(F)(F)F)cc3n2CC(F)F)C2COCCO2)cn1` (single isomer, unassigned) [Example 6] gave an IC50 of 0.006 µM. With `CCn1c([C@@H](NC(=O)c2cnc(C)cn2)[C@H]2COCCO2)nc2cc(C(F)(F)F)ccc21` [Example 3, N-[(R)-[(2S)-1,4-dioxan-2-yl][1-ethyl-5-(trifluoromethyl)-1H-1,3-benzodiazol-2-yl]methyl]-5-methylpyrazine-2-carboxamide] the IC50 was 0.005 µM. `CCn1c(C(NC(=O)c2cnc(C)cn2)C2COCCO2)nc2cc(F)ccc21` (single isomer, unassigned) [Example 10, N-[(1,4-dioxan-2-yl)(1-ethyl-5-fluoro-1H-1,3-benzodiazol-2-yl)methyl]-5-methylpyrazine-2-carboxamide] showed an IC50 of 0.02 µM. Work on `Cc1cnc(C(=O)N[C@H](c2nc3cc(C(F)(F)F)ccc3n2C)[C@H]2COCCO2)cn1` [Example 1, N-[(R)-[(2S)-1,4-dioxan-2-yl][1-methyl-5-(trifluoromethyl)-1H-1,3-benzodiazol-2-yl]methyl]-5-methylpyrazine-2-carboxamide] yielded an IC50 of 0.02 µM. `Cc1cnc(C(=O)NC(c2nc3cc(Cl)ccc3n2CC(F)F)C2COCCO2)cn1` (single isomer, unassigned) [Example 5] gave an IC50 of 0.062 µM. Work on `Cc1cnc(C(=O)NC(c2nc3cc(C(F)(F)F)ccc3n2C)C2COCCO2)cn1` (single isomer, unassigned) [Example 1-1, N-[(1,4-dioxan-2-yl)[1-methyl-5-(trifluoromethyl)-1H-1,3-benzodiazol-2-yl]methyl]-5-methylpyrazine-2-carboxamide] yielded an IC50 of 0.067 µM. With `CCn1c(C(NC(=O)c2cnc(C)cn2)C2COCCO2)nc2cc(F)c(F)cc21` (single isomer, unassigned) [Example 11] the IC50 was 0.015 µM. `Cc1cnc(C(=O)NC(c2nc3ccc(C(F)(F)F)cc3n2C)C2COCCO2)cn1` (single isomer, unassigned) [Example 7, N-[(1,4-dioxan-2-yl)[1-methyl-6-(trifluoromethyl)-1H-1,3-benzodiazol-2-yl]methyl]-5-methylpyrazine-2-carboxamide] gave an IC50 of 0.07 µM. Work on `Cc1cnc(C(=O)N[C@H](c2nc3ccc(F)cc3n2CC(F)F)[C@H]2COCCO2)cn1` [Example 8, N-[(R)-[1-(2,2-difluoroethyl)-6-fluoro-1H-1,3-benzodiazol-2-yl][(2S)-1,4-dioxan-2-yl]methyl]-5-methylpyrazine-2-carboxamide] yielded an IC50 of 0.031 µM. Compound `Cc1cnc(C(=O)N[C@H](c2nc3cc(F)ccc3n2CC(F)F)[C@H]2COCCO2)cn1` [Example 2, N-[(R)-[1-(2,2-difluoroethyl)-5-fluoro-1H-1,3-benzodiazol-2-yl][(2S)-1,4-dioxan-2-yl]methyl]-5-methylpyrazine-2-carboxamide] has an IC50 of 0.014 µM. `Cc1cnc(C(=O)NC(c2nc3cc(Cl)ccc3n2CC(F)F)C2COCCO2)cn1` (single isomer, unassigned) [Example 4, N-{[5-chloro-1-(2,2-difluoroethyl)-1H-1,3-benzodiazol-2-yl](1,4-dioxan-2-yl)methyl}-5-methylpyrazine-2-carboxamide] gave an IC50 of 0.007 µM. In the case of `Cc1cnc(C(=O)NC(c2nc3cc(F)c(F)cc3n2CC(F)F)C2COCCO2)cn1` (single isomer, unassigned) [Example 9, N-{[1-(2,2-difluoroethyl)-5,6-difluoro-1H-1,3-benzodiazol-2-yl](1,4-dioxan-2-yl)methyl}-5-methylpyrazine-2-carboxamide], the IC50 is reported as 0.011 µM.

Same assay, conditions: HEK293 cells overexpressing human mGluR4; 10 uM L-glutamic acid, 1 uM forskolin; prior-art compounds of WO2019/138017
Work on `Cn1nccc1C(=O)N[C@H](c1nc2c(F)c(Br)ccc2n1C)[C@H]1CC[C@@H](C)CC1` [Intermediate 250 in WO2019/ 138017 (regioisomere 1), reference compound] yielded an IC50 of 6.3 µM. Compound `Cc1nocc1C(=O)N[C@H](c1nc2cccc(F)c2[nH]1)[C@H]1CC[C@H](C)CC1` [Example 8 in WO2019/ 138017, reference compound] has an IC50 of 9.85 µM. Compound `CCn1nccc1C(=O)N[C@H](c1nc2ccc(C#N)c(F)c2[nH]1)[C@H]1CC[C@H](C)CC1` [Example 125 in WO2019/ 138017, reference compound] has an IC50 of 5.6 µM. With `COc1ccc2[nH]c(C(NC(=O)c3conc3C)C3CCCCCCC3)nc2c1F` (centres unmarked) [Example 12 in WO2019/ 138017, reference compound] the IC50 was greater than 10 µM. `Cn1nccc1C(=O)N[C@H](c1nc2c(F)c(Br)ccc2n1C)[C@H]1CC[C@H](C)CC1` [Intermediate 250 in WO2019/ 138017 (regioisomere 2), reference compound] gave an IC50 of 4 µM.
